From patent US9512114B2, “Substituted aminopyrimidine compounds and methods of use” (Calitor Sciences, LLC, priority 2013, dated 2016)

Assays:
[1] = test system: systemic lupus erythematosis model; details: Nature Medicine, 2005, 11, 933-935; cited from earlier work
[2] = test system: rheumatoid arthritis model; details: Nature Medicine, 2005, 11, 936-943; cited from earlier work
PI3K (p110δ/p85α) (h) = PI3K (p110δ/p85α) (h) (Homo sapiens (Human), UniProt O00329); assay: PI3K (p110δ/p85α) (h) non-radioactive HTRF kinase assay; assay type: biochemical; details: performed at Millipore UK Ltd
Experimental: (§1) The above assay procedure can be used to determine the IC50 for inhibition and/or the inhibition constant, Ki.
PI3K (p110δ/p85α) (h) [Non-Radioactive Assay]
(§2) PI3K (p110δ/p85α) (h) is incubated in assay buffer containing 10 μM phosphatidylinositol-4, 5-bisphosphate and MgATP (concentration as required). The reaction is initiated by the addition of the MgATP mix. After incubation for 30 minutes at room temperature, the reaction is stopped by the addition of stop solution containing EDTA and biotinylated phosphatidylinositol-3,4,5-trisphosphate. Finally, detection buffer is added, which contains europium-labelled anti-GST monoclonal antibody, GST-tagged GRP1 PH domain and streptavidin-allophycocyanin. The plate is then read in timeresolved fluorescence mode and the homogenous time-resolved fluorescence (HTRF) signal is determined according to the formula HTRF=10000×(Em665 nm/Em620 nm).
(§3) The kinase assays described herein were performed at Millipore UK Ltd, Dundee Technology Park, Dundee DD2 1SW, UK.

PI3K (p110β/p85α) (h) = PI3K (p110β/p85α) (h) (Homo sapiens (Human), UniProt P42338); assay: PI3K (p110β/p85α) (h) non-radioactive HTRF kinase assay; assay type: biochemical; details: performed at Millipore UK Ltd
Experimental: as §1
PI3K (p110β/p85α) (h) [Non-Radioactive Assay]
as §2, with “([…])” for “(p110δ/p85α)”
as §3

PI3K (p120γ) (h) = PI3K (p120γ) (h) (Homo sapiens (Human), UniProt P48736); assay: PI3K (p120γ) (h) non-radioactive HTRF kinase assay; assay type: biochemical; details: performed at Millipore UK Ltd
Experimental: as §1
PI3K (p120γ) (h) [Non-Radioactive Assay]
as §2, with “(p120γ)” for “(p110δ/p85α)”
as §3

[3] = Compound stability in rat liver microsomes; assay type: in vitro ADME; details: pH 7.4; for CLint scaled at 5 μM: liver microsomes, in vivo CLint extrapolated from rat liver microsome incubation; for half-life at 5 μM: rat liver microsomes 0.5 mg protein/mL, compound 5 μM, NADPH 1.0 mM, 37° C., read-out: Rat T1/2
Experimental: (§4) The LC/MS/MS system used in the analysis consists of an Agilent 1200 Series vacuum degasser, binary pump, well-plate autosampler, thermostatted column compartment, the Agilent G6430 Triple Quadrupole Mass Spectrometer with an electrosprayionization (ESI) source. Quantitative analysis was carried out using MRM mode. The parameters for MRM transitions are in the Table A.
(§5) An Agilent XDB-C18, 2.1×30 mm, […] column was used for the analysis. 5 μL of the samples were injected. Analysis condition: The mobile phase was 0.1% formic acid in water (A) and 0.1% formic acid in methanol (B). The flow rate was 0.4 mL/min. And the gradient of Mobile phase was in the Table B.
(§6) Alternatively, an Agilent 6330 series LC/MS/MS spectrometer equipped with G1312A binary pumps, a G1367A autosampler and a G1314C UV detector were used in the analysis. An ESI source was used on the LC/MS/MS spectrometer. The analysis was done in positive ion mode as appropriate and the MRM transition for each analyte was optimized using standard solution. A Capcell MP-C18 100×4.6 mm I.D., […] column (Phenomenex, Torrance, Calif., USA) was used during the analysis. The mobile phase was 5 mM ammonia acetate, 0.1% MeOH in water (A): 5 mM ammonia acetate, 0.1% MeOH in acetonitrile (B) (70:30, v/v). The flow rate was 0.6 mL/min. Column was maintained at ambient temperature. 20 μL of the samples were injected.
(§7) Human or rat liver microsomes incubations were conducted in duplicate in polypropylene tubes. The typical incubation mixtures consisted of human or rat liver microsomes (0.5 mg protein/mL), compounds of interest (5 μM) and NADPH (1.0 mM) in a total volume of 200 μL potassium phosphate buffer (PBS, 100 mM, pH 7.4). Compounds were dissolved in DMSO and diluted with PBS such that the final concentration of DMSO was 0.05%. The enzymatic reactions were commenced with the addition of protein after a 3-min preincubation and incubated in a water bath open to the air at 37° C. Reactions were terminated at various time points (0, 5, 10, 15, 30, 60 min) by adding equal volume of ice-cold acetonitrile. The samples were stored at −80° C. until LC/MS/MS assays.
(§8) The concentrations of compounds in the incubation mixtures of human or rat liver microsomes were determined by a LC/MS/MS method. The ranges of the linearity in the concentration range were determined for each tested compounds.
(§9) A parallel incubation was performed using denatured microsomes as the negative control, and reactions were terminated at various time points (0, 15, 60 min) after incubation at 37° C.
(§10) Dextromethorphan (70 μM) was selected as the positive control, and reactions were terminated at various time points (0, 5, 10, 15, 30, 60 min) after incubation at 37° C. Both positive and negative control samples were included in each assay to ensure the integrity of the microsomal incubation system.
(§11) The concentrations of compounds in human or rat liver microsome incubations were plotted as a percentage of the relevant zero time point control for each reaction. The in vivo CLint were extrapolated (ref.: Naritomi, Y.; Terashita, S.; Kimura, S.; Suzuki, A.; Kagayama, A.; and Sugiyama, Y.; Prediction of human hepatic clearance from in vivo animal experiments and in vitro metabolic studies with liver microsomes from animals and humans. Drug Metab. Dispos., 2001, 29: 1316-1324).

[4] = Compound stability in human liver microsomes; assay type: in vitro ADME; details: pH 7.4; for CLint scaled at 5 μM: liver microsomes, in vivo CLint extrapolated from human liver microsome incubation; for half-life at 5 μM: human liver microsomes 0.5 mg protein/mL, compound 5 μM, NADPH 1.0 mM, 37° C., read-out: Human T1/2
Experimental: as §4, §5, §6, §7, §8, §9, §10, §11

PI3K (p110α/p85α) (h) = PI3K (p110α/p85α) (h) (Homo sapiens (Human), UniProt P42336); assay: PI3K (p110α/p85α) (h) non-radioactive HTRF kinase assay; assay type: biochemical; details: performed at Millipore UK Ltd
Experimental: as §1
PI3K (p110α/p85α) (h) [Non-Radioactive Assay]
as §2, with “(p110α/p85α)” for “(p110δ/p85α)”, “phosphatidylinositol 4,5-bisphosphate” for “phosphatidylinositol-4, 5-bisphosphate”, “ATP solution.” for “MgATP mix.”, “streptavidin allophycocyanin.” for “streptavidin-allophycocyanin.”
as §3

[5] = Pharmacokinetic profiles in rats; assay type: in vivo, rat; details: for Cl/F / AUC(0-t) / half-life / Vd: iv dosing 1 mg/kg; for F: oral vs iv (iv 1 mg/kg; p.o. generally 5 or 10 mg/kg); for AUC(0-t) / half-life / Vd: rat, plasma; for Vd: read-out: Vss
Experimental: The compounds disclosed herein are assessed in pharmacokinetic studies in mice, rats, dogs or monkeys. The compounds are administered as a water solution, 2% HPMC+1% TWEEN®80 in water solution, 5% DMSO+5% solutol in saline, 4% MC suspension or capsule. For the intravenous administration, the animals are generally given at 1 or 2 mg/kg dose. For the oral (p.o.) dosing, mice and rats are generally given 5 or 10 mg/kg dose, and dogs and monkeys are generally given 10 mg/kg dose. The blood samples (0.3 mL) are drawn at 0.25, 0.5, 1.0, 2.0, 3.0, 4.0, 6.0, 8.0, 12 and 24 h time points or 0.083, 0.25, 0.5, 1.0, 2.0, 4.0, 6.0, 8.0 and 24 h time points and centrifuged at 3,000 or 4000 rpm for 2 to 10 min. The plasma solutions are collected, stored at −20° C. or −70° C. until analyzed by LC/MS/MS as described above.

[6] = test system: ovalbumin-induced airway inflammation; details: murine asthma model, FASEB, 2006, 20: 455-465; cited from earlier work
PI3Kδ = details: Cell, 2006, 125, 733-747; cited from earlier work
protein kinases = details: Cell, 2006, 125, 733-747; cited from earlier work

Sequence of PI3K (p110β/p85α) (h) (P42338 whole entry): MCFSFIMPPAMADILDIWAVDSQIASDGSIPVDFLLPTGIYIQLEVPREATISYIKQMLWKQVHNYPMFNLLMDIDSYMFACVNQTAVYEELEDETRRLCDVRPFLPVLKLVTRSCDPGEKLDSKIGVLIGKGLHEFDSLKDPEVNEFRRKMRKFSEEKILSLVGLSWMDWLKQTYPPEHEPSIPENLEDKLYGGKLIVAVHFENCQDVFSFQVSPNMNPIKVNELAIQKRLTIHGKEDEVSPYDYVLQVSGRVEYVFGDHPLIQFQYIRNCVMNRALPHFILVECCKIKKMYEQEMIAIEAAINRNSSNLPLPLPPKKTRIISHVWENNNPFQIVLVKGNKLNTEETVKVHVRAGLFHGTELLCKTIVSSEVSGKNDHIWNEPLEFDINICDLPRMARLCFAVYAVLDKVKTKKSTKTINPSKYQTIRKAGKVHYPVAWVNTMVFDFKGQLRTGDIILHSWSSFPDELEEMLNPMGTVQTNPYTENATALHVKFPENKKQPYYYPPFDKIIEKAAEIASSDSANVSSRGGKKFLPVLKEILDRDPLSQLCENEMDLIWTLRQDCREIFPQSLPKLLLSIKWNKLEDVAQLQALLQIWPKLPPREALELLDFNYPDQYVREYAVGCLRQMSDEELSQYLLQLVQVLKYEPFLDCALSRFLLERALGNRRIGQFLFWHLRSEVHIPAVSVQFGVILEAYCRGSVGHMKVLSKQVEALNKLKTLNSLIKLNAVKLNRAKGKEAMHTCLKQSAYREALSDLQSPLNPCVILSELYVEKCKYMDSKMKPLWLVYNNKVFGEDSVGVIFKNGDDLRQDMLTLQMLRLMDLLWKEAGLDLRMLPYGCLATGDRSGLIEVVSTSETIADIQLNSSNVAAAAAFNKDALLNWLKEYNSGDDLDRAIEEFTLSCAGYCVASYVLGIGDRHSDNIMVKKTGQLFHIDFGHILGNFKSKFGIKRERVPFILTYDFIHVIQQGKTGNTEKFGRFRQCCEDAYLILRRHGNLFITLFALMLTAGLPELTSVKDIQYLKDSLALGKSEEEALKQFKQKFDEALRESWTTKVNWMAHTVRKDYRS
Sequence of PI3K (p110β/p85α) (h) (P27986 whole entry partner): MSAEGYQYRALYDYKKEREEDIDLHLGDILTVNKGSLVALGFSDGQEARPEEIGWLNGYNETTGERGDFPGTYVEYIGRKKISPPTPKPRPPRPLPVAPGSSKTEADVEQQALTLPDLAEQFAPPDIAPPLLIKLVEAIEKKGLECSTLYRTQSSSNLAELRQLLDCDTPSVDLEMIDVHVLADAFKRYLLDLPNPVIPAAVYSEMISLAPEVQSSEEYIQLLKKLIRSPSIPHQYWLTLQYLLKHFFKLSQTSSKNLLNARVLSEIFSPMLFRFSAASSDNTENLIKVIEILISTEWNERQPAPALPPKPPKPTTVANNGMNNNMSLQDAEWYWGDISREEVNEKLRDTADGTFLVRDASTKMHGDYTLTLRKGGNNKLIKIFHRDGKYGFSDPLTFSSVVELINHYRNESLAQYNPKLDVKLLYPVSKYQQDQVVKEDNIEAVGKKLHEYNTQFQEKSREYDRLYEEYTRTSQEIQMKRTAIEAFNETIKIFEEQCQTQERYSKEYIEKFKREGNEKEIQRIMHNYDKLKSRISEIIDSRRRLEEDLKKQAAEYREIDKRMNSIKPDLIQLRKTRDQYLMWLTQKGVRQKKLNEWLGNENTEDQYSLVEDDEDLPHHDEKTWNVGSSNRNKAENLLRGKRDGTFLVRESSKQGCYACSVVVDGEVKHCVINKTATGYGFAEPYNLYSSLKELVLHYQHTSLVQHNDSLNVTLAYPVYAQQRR
Sequence of PI3K (p110δ/p85α) (h) (O00329 whole entry): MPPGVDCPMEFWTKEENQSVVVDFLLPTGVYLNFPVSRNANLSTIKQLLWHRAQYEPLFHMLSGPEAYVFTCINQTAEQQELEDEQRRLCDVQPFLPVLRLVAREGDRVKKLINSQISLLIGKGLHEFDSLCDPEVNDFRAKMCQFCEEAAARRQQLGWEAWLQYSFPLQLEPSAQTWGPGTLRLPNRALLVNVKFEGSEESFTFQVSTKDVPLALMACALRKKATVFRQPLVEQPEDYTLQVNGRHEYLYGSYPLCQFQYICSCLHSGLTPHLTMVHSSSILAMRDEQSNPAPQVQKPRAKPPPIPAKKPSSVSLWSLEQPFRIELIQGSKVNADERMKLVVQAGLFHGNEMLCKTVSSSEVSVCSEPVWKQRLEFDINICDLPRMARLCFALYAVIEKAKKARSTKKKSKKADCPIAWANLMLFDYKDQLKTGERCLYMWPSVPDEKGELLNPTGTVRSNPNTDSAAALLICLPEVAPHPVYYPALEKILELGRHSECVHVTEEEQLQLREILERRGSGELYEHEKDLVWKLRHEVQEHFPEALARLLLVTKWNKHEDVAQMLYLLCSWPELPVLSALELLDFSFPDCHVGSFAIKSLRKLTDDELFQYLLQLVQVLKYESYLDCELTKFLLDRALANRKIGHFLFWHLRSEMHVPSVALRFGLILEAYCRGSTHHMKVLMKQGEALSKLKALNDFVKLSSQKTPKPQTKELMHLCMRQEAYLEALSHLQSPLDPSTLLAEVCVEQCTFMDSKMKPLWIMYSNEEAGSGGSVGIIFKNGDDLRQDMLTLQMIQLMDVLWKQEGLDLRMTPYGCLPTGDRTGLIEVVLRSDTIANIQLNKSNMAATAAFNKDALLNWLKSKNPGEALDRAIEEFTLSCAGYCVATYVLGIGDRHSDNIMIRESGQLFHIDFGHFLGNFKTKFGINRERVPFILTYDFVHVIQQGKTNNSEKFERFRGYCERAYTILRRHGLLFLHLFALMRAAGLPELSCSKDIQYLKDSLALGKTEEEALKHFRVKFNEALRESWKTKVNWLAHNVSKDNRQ
Sequence of PI3K (p110δ/p85α) (h) (P27986 whole entry partner): as the sequence (P27986 whole entry partner) above
Sequence of PI3K (p120γ) (h) (P48736 whole entry): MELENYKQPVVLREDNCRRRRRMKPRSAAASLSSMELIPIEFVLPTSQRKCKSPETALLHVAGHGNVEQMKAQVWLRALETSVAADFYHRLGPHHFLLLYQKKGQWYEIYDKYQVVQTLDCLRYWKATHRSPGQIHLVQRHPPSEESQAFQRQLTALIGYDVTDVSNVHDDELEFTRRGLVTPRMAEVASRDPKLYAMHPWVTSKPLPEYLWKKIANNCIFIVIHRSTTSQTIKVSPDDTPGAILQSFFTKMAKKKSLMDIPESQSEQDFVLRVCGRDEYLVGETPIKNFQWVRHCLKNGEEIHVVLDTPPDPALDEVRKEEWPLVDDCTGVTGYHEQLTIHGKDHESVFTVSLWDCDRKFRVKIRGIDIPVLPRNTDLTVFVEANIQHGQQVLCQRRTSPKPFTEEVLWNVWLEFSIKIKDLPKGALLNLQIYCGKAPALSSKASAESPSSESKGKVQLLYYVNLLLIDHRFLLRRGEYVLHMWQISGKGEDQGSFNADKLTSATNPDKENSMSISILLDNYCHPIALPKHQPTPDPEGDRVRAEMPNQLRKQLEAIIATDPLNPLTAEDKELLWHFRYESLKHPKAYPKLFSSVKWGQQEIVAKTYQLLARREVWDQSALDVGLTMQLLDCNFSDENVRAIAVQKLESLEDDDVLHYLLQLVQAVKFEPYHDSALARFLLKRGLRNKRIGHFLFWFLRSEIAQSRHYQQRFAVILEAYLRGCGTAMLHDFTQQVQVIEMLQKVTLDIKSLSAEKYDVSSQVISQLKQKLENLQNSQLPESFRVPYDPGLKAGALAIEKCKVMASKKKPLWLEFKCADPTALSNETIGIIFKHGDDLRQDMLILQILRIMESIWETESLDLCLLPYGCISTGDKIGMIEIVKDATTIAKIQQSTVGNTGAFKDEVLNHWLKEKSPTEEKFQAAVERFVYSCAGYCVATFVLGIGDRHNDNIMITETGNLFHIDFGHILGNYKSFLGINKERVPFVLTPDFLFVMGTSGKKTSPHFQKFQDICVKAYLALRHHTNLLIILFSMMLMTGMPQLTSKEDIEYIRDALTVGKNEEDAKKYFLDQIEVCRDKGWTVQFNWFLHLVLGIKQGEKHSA
Sequence of PI3K (p110α/p85α) (h) (P42336 whole entry): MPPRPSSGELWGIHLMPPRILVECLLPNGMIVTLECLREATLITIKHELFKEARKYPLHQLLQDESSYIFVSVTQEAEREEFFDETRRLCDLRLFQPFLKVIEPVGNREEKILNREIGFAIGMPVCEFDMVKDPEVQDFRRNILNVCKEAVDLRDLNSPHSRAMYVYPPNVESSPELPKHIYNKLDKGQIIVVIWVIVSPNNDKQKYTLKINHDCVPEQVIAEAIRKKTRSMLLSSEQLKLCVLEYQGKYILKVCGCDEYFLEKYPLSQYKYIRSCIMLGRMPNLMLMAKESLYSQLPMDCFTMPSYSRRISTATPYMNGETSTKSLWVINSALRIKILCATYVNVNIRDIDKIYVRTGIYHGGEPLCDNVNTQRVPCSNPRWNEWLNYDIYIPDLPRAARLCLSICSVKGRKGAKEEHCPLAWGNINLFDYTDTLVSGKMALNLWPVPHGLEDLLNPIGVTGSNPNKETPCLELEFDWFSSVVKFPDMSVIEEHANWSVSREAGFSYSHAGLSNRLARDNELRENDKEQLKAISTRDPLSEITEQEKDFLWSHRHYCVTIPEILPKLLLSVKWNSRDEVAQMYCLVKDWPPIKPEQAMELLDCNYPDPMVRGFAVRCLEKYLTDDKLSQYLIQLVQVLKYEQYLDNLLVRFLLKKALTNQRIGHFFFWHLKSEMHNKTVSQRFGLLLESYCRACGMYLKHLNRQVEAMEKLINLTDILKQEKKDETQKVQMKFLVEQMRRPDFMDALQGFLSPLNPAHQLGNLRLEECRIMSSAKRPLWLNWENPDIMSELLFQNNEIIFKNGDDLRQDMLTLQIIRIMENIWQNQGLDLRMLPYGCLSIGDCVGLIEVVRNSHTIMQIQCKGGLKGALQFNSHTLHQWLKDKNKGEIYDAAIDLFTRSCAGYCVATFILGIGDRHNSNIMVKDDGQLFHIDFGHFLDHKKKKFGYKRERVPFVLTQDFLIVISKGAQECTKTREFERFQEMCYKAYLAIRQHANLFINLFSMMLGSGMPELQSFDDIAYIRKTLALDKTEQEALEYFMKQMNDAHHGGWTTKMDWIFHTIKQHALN
Sequence of PI3K (p110α/p85α) (h) (P27986 whole entry partner): as the sequence (P27986 whole entry partner) above

In the case of `O=C1NC(=O)/C(=C\c2ccc3nccnc3c2)S1` [AS 605240], the “effect on onset of disease in model of systemic lupus erythematosis” value [1] is given as “delay onset of disease” and the “efficacy in mouse model of rheumatoid arthritis” value [2] is given as “efficacious”.
With `Cc1nnc(-c2c(N)ncnc2N[C@@H](C)c2cc3cccc(-c4cnn(C)c4)c3c(=O)n2-c2ccccc2)o1` [Ex. 27, (S)-3-(1-((6-amino-5-(5-methyl-1,3,4-oxadiazol-2-yl)pyrimidin-4-yl)amino)ethyl)-8-(1-methyl-1H-pyrazol-4-yl)-2-phenylisoquinolin-1(2H)-one] the IC50 (PI3K (p110δ/p85α) (h)) was 17 nM, the IC50 (PI3K (p110β/p85α) (h)) was greater than 3000 nM and the IC50 (PI3K (p120γ) (h)) was 237 nM. The CLint scaled at 5 μM [3] was 33.3 mL/min/kg, the half-life at 5 μM [3] was 74.5 min and the CLint scaled at 5 μM [4] was 15.5 mL/min/kg. It also gave a half-life at 5 μM [4] of 112 min and an IC50 (PI3K (p110α/p85α) (h)) greater than 3000 nM.
Compound `Cc1noc(-c2c(N)ncnc2N[C@@H](C)c2cc3cccc(Cl)c3c(=O)n2C2CC2)n1` [Ex. 24, (S)-3-(1-((6-amino-5-(3-methyl-1,2,4-oxadiazol-5-yl)pyrimidin-4-yl)amino)ethyl)-8-chloro-2-cyclopropylisoquinolin-1(2H)-one] has a Cl/F [5] of 120 mL/min/kg, an F [5] of 12.28% and an AUC(0-t) [5] of 139 ng·h/mL. The half-life [5] was 45 min, the Vd [5] was 5.46 L/kg and the IC50 (PI3K (p110δ/p85α) (h)) was 3 nM. The IC50 (PI3K (p120γ) (h)) was 15 nM, the CLint scaled at 5 μM [3] was 190 mL/min/kg and the half-life at 5 μM [3] was 13.1 min. It also gave a CLint scaled at 5 μM [4] of 114 mL/min/kg, a half-life at 5 μM [4] of 15.3 min and an IC50 (PI3K (p110α/p85α) (h)) of 307 nM.
Compound `Cc1noc(-c2c(N)ncnc2N[C@@H](C)c2cc3cccc(-c4cnn(C)c4)c3c(=O)n2-c2ccccc2)n1` [Ex. 28, (S)-3-(1-((6-amino-5-(3-methyl-1,2,4-oxadiazol-5-yl)pyrimidin-4-yl)amino)ethyl)-8-(1-methyl-1H-pyrazol-4-yl)-2-phenylisoquinolin-1(2H)-one] has an IC50 (PI3K (p110δ/p85α) (h)) of 9 nM, an IC50 (PI3K (p110β/p85α) (h)) of 1170 nM and an IC50 (PI3K (p120γ) (h)) of 104 nM. It also gave a CLint scaled at 5 μM [3] of 72.7 mL/min/kg, a half-life at 5 μM [3] of 34.2 min and a CLint scaled at 5 μM [4] of 64.1 mL/min/kg. For the same compound, the half-life at 5 μM [4] was 27.1 min and the IC50 (PI3K (p110α/p85α) (h)) was 225 nM.
In the case of `Cc1ccccc1-n1c(Cn2cnc3c(N)ncnc32)nc2cccc(C)c2c1=O` [IC87114], the “effect on inflammation and disease” value [6] is listed as “significantly ameliorate inflammation and disease”, the “inhibits PI3Kδ” value (PI3Kδ) is listed as “high nanomolar range (triple digit)” and the “activity against any protein kinases tested” value (protein kinases) is listed as “no activity”.
With `CC[C@H](Nc1ncnc(N)c1-c1nnc(C)o1)c1cc2cccc(Cl)c2c(=O)n1-c1ccccc1` [Ex. 5, (S)-3-(1-((6-amino-5-(5-methyl-1,3,4-oxadiazol-2-yl)pyrimidin-4-yl)amino)propyl)-8-chloro-2-phenylisoquinolin-1(2H)-one] the Cl/F [5] was 52.2 mL/min/kg, the F [5] was 106.3% and the AUC(0-t) [5] was 320 ng·h/mL. The half-life [5] was 31.8 min, the Vd [5] was 1.87 L/kg and the IC50 (PI3K (p110β/p85α) (h)) was 259 nM. The IC50 (PI3K (p120γ) (h)) was 388 nM, the CLint scaled at 5 μM [3] was 108 mL/min/kg and the half-life at 5 μM [3] was 23.1 min. For the same compound, the CLint scaled at 5 μM [4] was 29.2 mL/min/kg, the half-life at 5 μM [4] was 59.6 min and the IC50 (PI3K (p110α/p85α) (h)) was greater than 3000 nM.
`Cc1nc(-c2c(N)ncnc2N[C@@H](C)c2cc3cccc(Cl)c3c(=O)n2C2CC2)no1` [Ex. 11, (S)-3-(1-((6-amino-5-(5-methyl-1,2,4-oxadiazol-3-yl)pyrimidin-4-yl)amino)ethyl)-8-chloro-2-cyclopropylisoquinolin-1(2H)-one] showed an IC50 (PI3K (p110δ/p85α) (h)) of 13 nM, an IC50 (PI3K (p120γ) (h)) of 375 nM and a CLint scaled at 5 μM [3] of 317 mL/min/kg. For the same compound, the half-life at 5 μM [3] was 7.83 min, the CLint scaled at 5 μM [4] was 545 mL/min/kg and the half-life at 5 μM [4] was 3.19 min. For the same compound, the IC50 (PI3K (p110α/p85α) (h)) was 1480 nM.
